Among the data in a melting point compilation (Tetko et al.) are melting point values, retold here.

For orientation: melting point means the temperature of the solid-liquid transition.

Structures are written as SMILES.

Consider `O=C(O)c1cc(F)c(F)c(F)c1`, for which the melting point worked out at 98 °C.
Next, `Cc1ccccc1NC(N)=S`: 162 °C; `CCCCCCC(C)CCCCCC`: -37.2 °C; `OCC1OC(n2cnc3c(NCc4ccco4)ncnc32)C(O)C1O` (configuration not stated): 152 to 154 °C.
The value for `CCOC(=O)CSc1nc(C)n[nH]1` was 99 to 101 °C.
Next, `CCc1[nH]c2ccccc2c1C`: 62 to 65 °C; `Clc1cc2c(oc3c(Cl)c(Cl)c(Cl)cc32)c(Cl)c1Cl`: 240 °C.
`O=Cc1ccc(F)c(Cl)c1` came in with a melting point of 28 to 30 °C.
The value for `CC(C)Oc1cccc(OC(C)C)c1-c1ccccc1P(C1CCCCC1)C1CCCCC1` was 124 °C.
Next, `Cc1[nH]c2cc(C(=O)O)ccc2c1C`: 150 °C; `NC(=O)N1c2ccccc2C=Cc2ccccc21`: 190 °C; `Cc1cc(C(C)(C)C)c(O)c(C)c1CC1=NCCN1`: 182 °C.
Next, `COc1ccc(-c2noc(C)c2C(=O)O)cc1`: 190 to 195 °C.
`O=C(CBr)c1cccc2c1OCCCO2` displayed a melting point of 55 to 56 °C.
Next, `COc1cc(N)c(Cl)cc1C(=O)NC1CCN(CCCOc2ccc(F)cc2)CC1OC` (configuration not stated): 110 °C; `O=C(Nc1cccnc1)C(F)(F)C(F)(F)C(F)(F)C(F)(F)C(F)(F)C(F)(F)C(F)(F)C(F)(F)F`: 145 °C.
Next, `CC(C)CCC[C@@H](C)[C@H]1CC[C@H]2[C@@H]3CC=C4C[C@@H](OCOc5ccc(Cl)cc5)CC[C@]4(C)[C@H]3CC[C@]12C`: 144 to 145 °C; `CC(O)c1cccc(N)c1` (configuration not stated): 68 °C; `COc1c2occc2c(OC)c2c(=O)cc(C)oc12`: 155 °C.
Next, `CC1NC(C)SC(C)S1` (configuration not stated): 46 °C.
Regarding `O=[N+]([O-])c1ccc(C=Cc2cccc(/C=C\c3ccc([N+](=O)[O-])cc3[N+](=O)[O-])c2)c([N+](=O)[O-])c1`, the melting point was determined as 243 °C.
Next, `CCN(CC)c1ccc(C(C)=O)cc1`: 48 °C; `Nc1nn2c(C(F)(F)F)cc(=O)[nH]c2c1/N=N/c1cccc2ccccc12`: 290 °C; `CC(O)CCc1ccc2c(c1)N(C(=O)c1ccccc1)C(C)CC2` (configuration not stated): 77 °C.
Next, `CC(C)=C1C2C=CC1c1ccccc12`: 92 °C; `O=C(NC(Cc1ccsc1)C(=O)O)OCC1c2ccccc2-c2ccccc21` (configuration not stated): 188 °C.
The value for `O=C(Nc1ccccc1CCCCc1ccccc1NC(=O)c1ccccc1)c1ccccc1` was 210 to 211 °C.
For `O=C(c1ccc(O)cc1)c1ccc(Cl)cc1`, the melting point stood at 180 °C.
`CNC(=O)Oc1cc(C)c(SC)c(C)c1` showed a melting point of 120 °C.
The value for `O=C1NN(c2ccccc2)C(=O)/C1=C/c1ccccc1` was 275 °C.
Next, `COc1cnc(NS(=O)(=O)c2ccc(N)cc2)nc1`: 215 °C; `CCOc1ccc2c(C)cc(=O)oc2c1`: 115 °C.
`CCC(=O)C1(c2cccc(O)c2)CCN(C)CC1`: the melting point was determined as 156 °C.
On to `CC12CCC(C(=O)OC1=O)C2(C)C` (configuration not stated), for which the melting point came to 221 °C.
The value for `CCCCC(CC)CO[N+](=O)[O-]` (configuration not stated) was 75 °C; that for `S=C=Nc1ccc2nsnc2c1` was 96 to 97 °C; that for `CCCSP(=S)(OCC)Oc1ccc(SC)cc1` (configuration not stated) was -15 °C.
The value for `O=C1CCSc2ccc(Cl)cc21` was 64 to 65 °C; that for `Cn1nc(CCl)cc1-c1ccco1` was 72 to 73 °C.
The value for `CCC1(c2ccccc2)C(=O)NC(=O)N(C)C1=O` (configuration not stated) was 176 °C; that for `CC(C)[C@@H]1COC(=O)N1` was 70 to 73 °C; that for `C#CCCCCCCCCCCCCCCCCCC` was 36 °C.
On to `Cc1nccc(-c2cccc(N)c2)n1`, for which the melting point lay in the range of 108 to 109 °C.
The value for `CC1(C)CC(=O)C(Cl)C(=O)C1` was 163 °C; that for `Clc1ccc(-c2csc(N3N=C(c4cnccn4)CC3c3ccc4c(c3)OCO4)n2)cc1` (configuration not stated) was 187 °C; that for `N#Cc1c(N)oc(-c2ccco2)c1-c1ccco1` was 183 to 185 °C.
The value for `NN(c1ccccc1)c1ccccc1` was 50.5 °C; that for `CCN(CC)c1nc(Cl)nc(N(CC)CC)n1` was 27 °C; that for `CCCCOc1ccc(/C=N/c2ccc(C(C)=O)cc2)cc1` was 80 to 128 °C.
For `CSc1nn(CO)c(=S)s1`, the melting point is 72 to 74 °C.
Next, `CC=Cc1ccc(OC)c(OC)c1`: 18 °C; `Fc1cc(Br)cc(Br)c1N=C=S`: 50 to 51 °C.
The value for `Nc1cc(F)ccc1-n1ccnc1` was 127 °C.
Next, `O=C(O)CCC(=O)c1ccc(C2CCCCC2)c(Cl)c1`: 163 °C; `O=C1OC(c2ccccc2)=NC1=Cc1ccc(-c2cccc([N+](=O)[O-])c2)o1`: 144 to 145 °C; `Nc1c(Br)cc(Br)c(Cl)c1Cl`: 98 °C.
For `CC(=O)OCC(COC(C)=O)OC(C)=O`, the melting point stood at 78 °C.
The compound `COc1ccc(-c2nnc3n2NC(c2ccc(N(C)C)cc2)S3)cc1` (configuration not stated) yielded a melting point of 167 °C.
The value for `O=C(c1ccc2ccccc2c1)c1noc(-c2cccc3ccccc23)c1S(=O)(=O)c1ccccc1` was 115 °C; that for `Cc1ccc(F)c(C#N)c1` was 51 °C.
Compound `O=C(CN1CCNCC1)N1CCCC1` returned a melting point of 75 to 76 °C.
Next, `CC(C)OC(=O)CCCCC(=O)OC(C)C`: -1.1 °C; `O=C(CSc1nc(=O)[nH]c2c1CCCC2)c1ccccc1`: 250 to 255 °C; `CC(C)(C)OC(=O)N[C@@H](CCCCN)C(=O)O`: 205 °C.
Next, `CCCCCCCCCCCC(=O)OCCOC(=O)CCCCCCCCCCC`: 56.6 °C.
Next, `CON(C)C(=O)Nc1ccc(Oc2ccc3c(c2)OC(C)(OC)CC3(C)C)cc1` (configuration not stated): 102 °C; `CCC(CO)(CO)COCC(CC)(CO)CO`: 110 °C; `Nc1nc(=O)c2[nH]nnc2[nH]1`: 300 °C.
`O=C(O)c1cnccc1C(F)(F)F` yielded a melting point of 150 °C.
The value for `COc1ccc(NC(N)=S)c(OC)c1` was 199 to 201 °C.
The value for `OCCC1CCCCN1` (configuration not stated) was 69 °C; that for `Nc1c(Cl)cc(C(F)(F)F)cc1[N+](=O)[O-]` was 66 to 68 °C.
Next, `O=S(=O)(c1ccc(N=C=S)cc1)c1ccc(N=C=S)cc1`: 187 to 189 °C; `CC1CCC(C(C)C)C(OC(=O)C(C)O)C1` (single isomer, unassigned; (-)): 40 °C.
`C1CCCCNCCC1`: the melting point was -19 °C.
Next, `COC(=O)c1ccc(N2N=N2)cc1`: 40 °C; `NCCSc1cc(C(F)(F)F)nc2ccccc12`: 97 to 99 °C.
